Data reported in patent publication US11396517B1, “Exo-aza spiro inhibitors of menin-MLL interaction” (Janssen Pharmaceutica NV, priority 2017, dated 2022).

Legend:
MV-4-11 [1] = experiment: Proliferation assay A (spheroid assay) MV-4-11; assay type: cell-based, human; details: MV-4-11 cells, 8 d, AUC of confluence against time, absolute IC50, read-out: (3a) Spheroid assay MV-4-11 (IC50(μM)) Assay A
Protocol: (§1) 3a) Proliferation Assay A
(§2) The anti-proliferative effect of menin/MLL protein/protein interaction inhibitor test compounds was assessed in human leukemia cell lines. The cell lines MV-4-11 and MOLM14 harbor MILL translocations and express the MILL fusion proteins MLL-AF4 and MLL-AF9, respectively, as well as the wildtype protein from the second allele. […] K562 was used as a control cell line containing two MLL wildtype alleles in order to exclude compounds that display general cytotoxic effects.
(§3) MV-4-11 and MOLM14 were cultured in RPMI-1640 (Sigma Aldrich) supplemented with 10% fetal bovine serum (HyClone), 2 mM L-glutamine (Sigma Aldrich) and 50 μg/ml gentamycin (Gibco). K562 were propagated in RPMI-1640 (Sigma Aldrich) supplemented with 20% fetal bovine serum (HyClone), 2 mM L-glutamine (Sigma Aldrich) and 50 μg/ml gentamycin (Gibco).
(§4) In order to assess the anti-proliferative effects, 1,500 MV-4-11, 300 MOLM14 or 750 K562 cells were seeded in 200 μl media per well in 96-well round bottom, ultra-low attachment plates (Costar, catalogue number 7007). Cell seeding numbers were chosen based on growth curves to ensure linear growth throughout the experiment. Test compounds were added at different concentrations and the DMSO content was normalized to 0.3%. Cells were incubated for 8 d at 37° C. and 5% CO2. Spheroid like growth was monitored in real-time by live-cell imaging (IncuCyteZOOM, Essenbio, 4× objective) acquiring one image every four hours for 8 d. Confluence (%) as a measure of spheroid size was determined using an integrated analysis tool.
(§5) In order to determine the cumulative effect of the test compounds over time, the area under the curve (AUC) in a plot of confluence against time was calculated. Confluence at the beginning of the experiment (t=0) was used as baseline for the AUC calculation.
(§6) Absolute IC50 values were calculated according to the following procedure: % Control=(AUC sample/AUC control)*100
(§7) AUC control mean AUC of control values (cells without compound/DMSO as vehicle control)
(§8) A non-linear curve fit was applied using the least squares (ordinary) fit method to the plot of % control versus compound concentration. Based on this, the absolute IC50 value (half maximal inhibitory concentration of the test compound causing an anti-proliferative effect of 50% relative to the vehicle control) was calculated.

MOLM14 [2] = experiment: Proliferation assay A (spheroid assay) MOLM14; assay type: cell-based, human; details: Homo sapiens, MOLM-14, 192 h, MOLM14 cells, 8 d, AUC of confluence against time, absolute IC50; read-out: (3a) Spheroid assay MOLM14 (IC50(μM)) Assay A
Protocol: as §1, §2, §3, §4, §5, §6, §7, §8

menin = target: T1, menin (Homo sapiens, UniProt O00255, T541A); experiment: Menin/MLL homogenous time-resolved fluorescence (HTRF) assay; assay type: binding; details: location 2; read-out: (2) location 2 Menin HTRF assay (IC50 (nM))
T1 construct: Menin (a.a. 1-610-6×his tag)
T1 sequence (O00255 with tags, fused parts or gaps T541A): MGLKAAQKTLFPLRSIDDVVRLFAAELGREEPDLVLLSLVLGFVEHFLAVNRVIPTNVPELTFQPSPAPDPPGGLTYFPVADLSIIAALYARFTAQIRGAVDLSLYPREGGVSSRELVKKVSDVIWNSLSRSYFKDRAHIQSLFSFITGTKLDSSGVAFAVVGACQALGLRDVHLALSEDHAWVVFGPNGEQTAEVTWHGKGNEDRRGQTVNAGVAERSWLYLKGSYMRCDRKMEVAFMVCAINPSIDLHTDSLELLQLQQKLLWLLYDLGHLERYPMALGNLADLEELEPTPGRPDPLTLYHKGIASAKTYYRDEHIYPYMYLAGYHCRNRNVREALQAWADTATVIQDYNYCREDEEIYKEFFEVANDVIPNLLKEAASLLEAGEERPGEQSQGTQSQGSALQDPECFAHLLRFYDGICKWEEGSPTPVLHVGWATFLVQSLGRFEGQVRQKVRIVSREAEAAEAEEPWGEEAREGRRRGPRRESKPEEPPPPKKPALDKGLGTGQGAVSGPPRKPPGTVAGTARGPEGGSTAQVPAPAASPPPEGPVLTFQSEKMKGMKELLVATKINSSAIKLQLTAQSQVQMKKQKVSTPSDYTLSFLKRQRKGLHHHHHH
Procedure, shortened: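 Terbium-labeled menin (aa 1-610, His-tagged; […]) preincubated 5 min with compound, then 75 nM FITC-MBM1 peptide for 15 min, ambient, Tris pH 7.5, 0.5% DMSO. HTRF 520/490 ratio; 11-point 3-fold titration; IC50 from % inhibition fit.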

MV-4-11 [3] = experiment: Proliferation assay B (spheroid assay) MV-4-11; assay type: cell-based, human; details: MV-4-11 cells, confluence at day 8, absolute IC50, read-out: (3b) Spheroid assay MV-4--11 (IC50(μM)) Assay B
Protocol: 3b) Proliferation Assay B
as §2, §3
as §4, with “MOLM14 cells” for “MOLM14”, “measured” for “monitored”, “images at day 8.” for “one image every four hours for 8 d.”
In order to determine the effect of the test compounds over time, the confluence in each well as a measure of spheroid size, was calculated. Confluence […] at the beginning of the experiment (t=0) was used as baseline for the calculation.
Absolute IC50 values were calculated as percent change in confluence as follows:
LC=Low Control: cells treated with 1 μM of the cytotoxic agent staurosporin
HC=High Control: Mean confluence (%) (DMSO treated cells) % Effect=100−(100*(Sample−LC)/(HC−LC))
To determine the IC50 a curve is fitted to the plot of % Effect vs Log 10 compound concentration using a sigmoidal fit with a variable slope and fixing the maximum to 100% and the minimum to 0%.

MOLM14 [4] = experiment: Proliferation assay B (spheroid assay) MOLM14; assay type: cell-based, human; details: MOLM14 cells, confluence at day 8, absolute IC50, read-out: (3b) Spheroid assay MOLM14 (IC50(μM)) Assay B
Procedure, shortened: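 Leukemia cells grown as spheroids in ultra-low-attachment round-bottom wells with compound at 0.3% DMSO for 8 d at 37 °C. Confluence imaged at day 8 as spheroid size, normalized between DMSO and 1 μM staurosporine controls; absolute IC50 from sigmoidal fit with bounds fixed at 0 and 100%.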

Row | IC50 (MV-4-11 [1]; Homo sapiens, MV4-11, 192 h) | IC50 (MOLM14 [2]) | IC50 (menin) | IC50 (MV-4-11 [3]; Homo sapiens, MV4-11, 192 h) | IC50 (MOLM14 [4]; Homo sapiens, MOLM-14, 192 h) | IC50 (MV-4-11 [1]) | IC50 (MV-4-11 [3]) | IC50 (MOLM14 [4]) | Compound
1 | 1.65 µM | 2.52 µM | 20.8 nM | – | – | – | – | – | N#CCc1ccc(NC2CC3(CCN(c4ncnc5sc(CC(F)(F)F)cc45)C3)C2)cc1F (mixture of isomers) [Compound 168]
2 | 3.83 µM | > 3.75 µM | 27.1 nM | – | – | – | – | – | FC(F)(F)Cc1cc2c(N3CCC4(CC(Nc5ccc6cc(C(F)(F)F)[nH]c6c5)C4)C3)ncnc2s1 (mixture of isomers) [Compound 314]
3 | > 3.75 µM | – | 51.4 nM | > 3.75 µM | > 3.75 µM | – | – | – | O=c1[nH]c2ccc(NC3CC4(CCN(c5ncnc6sc(CC(F)(F)F)cc56)C4)C3)cc2o1 (mixture of isomers) [Compound 322]
4 | 2.84 µM | > 3.75 µM | 14.6 nM | – | – | – | – | – | CNc1nc(N2CCC3(CC(Nc4ccc(CC#N)cc4)C3)C2)c2cc(CC(F)(F)F)sc2n1 (mixture of isomers) [Compound 390]
5 | > 3.75 µM | > 3.75 µM | 22.8 nM | – | – | – | – | – | N#CCc1ccc(NC2CCC3(C2)CN(c2ncnc4sc(CC(F)(F)F)cc24)C3)cc1 (racemic) [Compound 278]
6 | > 3.75 µM | – | 94.2 nM | > 3.75 µM | > 3.75 µM | – | – | – | N#CCc1ccc(NC2CCC3(C2)CN(c2nc(N)nc4sc(CC(F)(F)F)cc24)C3)cc1 (racemic) [Compound 387]
7 | – | – | 3.6 nM | 0.06 µM | 0.44 µM | 0.04 µM | – | – | CNC(=O)c1ccc(NC2CC3(CCN(c4ncnc5sc(CC(F)(F)F)cc45)C3)C2)cc1 (single isomer, unassigned) [Compound 94]
8 | – | – | 9.3 nM | 1.4 µM | 2.77 µM | – | – | – | N#CCc1ccc(N[C@@H]2CC[C@@]3(CCN(c4ncnc5sc(CC(F)(F)F)cc45)C3)C2)cc1 (stereo in doubt) [Compound 144]
9 | – | – | 22.6 nM | 3.55 µM | > 3.75 µM | – | – | – | N#CCc1ccc(N[C@H]2CC[C@@]3(CCN(c4ncnc5sc(CC(F)(F)F)cc45)C3)C2)cc1 (stereo in doubt) [Compound 145]
10 | – | – | 45.3 nM | 2.07 µM | 2.9 µM | – | – | – | N#CCc1ccc(N[C@H]2CC[C@]3(CCN(c4ncnc5sc(CC(F)(F)F)cc45)C3)C2)cc1 (stereo in doubt) [Compound 147]
11 | – | – | 8.7 nM | > 3.75 µM | > 3.75 µM | – | – | – | NC(=O)Cn1c(=O)[nH]c2cc(CNC3CCC4(C3)CN(c3ncnc5sc(CC(F)(F)F)cc35)C4)ccc21 (stereo not drawn) [Compound 53, 2-(2-oxo-5-(((2-(6-(2,2,2-trifluoroethyl)thieno[2,3-d]-pyrimidin-4-yl)-2-azaspiro[3.4]octan-6-yl)amino)methyl)-2,3-dihydro-1H-benzo[d]-imidazol-1-yl)acetamide]
12 | – | – | 2.7 nM | 0.3 µM | 1.08 µM | – | – | – | CNC(=O)c1ccc(NC2CC3(CCN(c4ncnc5sc(CC(F)(F)F)cc45)C3)C2)nc1 (stereo not drawn) [Compound 70]
13 | – | – | 6.8 nM | 0.43 µM | 0.65 µM | – | – | – | CN1CCC(Oc2cc(NC3CC4(CCN(c5ncnc6sc(CC(F)(F)F)cc56)C4)C3)ccc2C#N)CC1 (stereo not drawn) [Compound 81]
14 | – | – | 73.6 nM | 1.14 µM | 0.93 µM | – | – | – | CN1CCC(Nc2cc(NC3CC4(CCN(c5ncnc6sc(CC(F)(F)F)cc56)C4)C3)ccc2C#N)CC1 (stereo not drawn) [Compound 82]
15 | – | – | 43.4 nM | 1.02 µM | 1.09 µM | – | – | – | CNC(=O)c1ccc(NC2CCC3(C2)CN(c2ncnc4sc(CC(F)(F)F)cc24)C3)cc1 (stereo not drawn) [Compound 96]
16 | – | – | 34.3 nM | 3.81 µM | > 3.75 µM | – | – | – | N#CCc1ccc(NC2CCC3(CCN(c4ncnc5sc(CC(F)(F)F)cc45)C3)C2)cc1F (stereo not drawn) [Compound 129]
17 | – | – | 67.1 nM | > 3.75 µM | > 3.75 µM | – | – | – | CC(C)(C#N)c1ccc(NC2CCC3(CCN(c4ncnc5sc(CC(F)(F)F)cc45)C3)C2)cc1 (stereo not drawn) [Compound 130]
18 | – | – | 49.1 nM | 3.3 µM | > 3.75 µM | – | – | – | N#CC1(c2ccc(NC3CCC4(CCN(c5ncnc6sc(CC(F)(F)F)cc56)C4)C3)cc2)CC1 (stereo not drawn) [Compound 131]
19 | – | – | 4.1 nM | 1.41 µM | > 3.75 µM | – | – | – | CNC(=O)c1ccc(NC2CCC3(CCN(c4ncnc5sc(CC(F)(F)F)cc45)C3)C2)cc1 (stereo not drawn) [Compound 133]
20 | – | – | 31 nM | 2.03 µM | 2.48 µM | – | – | – | FC(F)(F)Cc1cc2c(N3CCC4(CC(Nc5ccccn5)C4)C3)ncnc2s1 (stereo not drawn) [Compound 151]
21 | – | – | 13 nM | – | – | – | 0.67 µM | 2.35 µM | FC(F)(F)Cc1cc2c(N3CCC4(CC(Nc5ccncc5)C4)C3)ncnc2s1 (stereo not drawn) [Compound 154]
22 | – | – | 92.8 nM | > 3.75 µM | > 3.75 µM | – | – | – | FC(F)(F)Cc1cc2c(N3CC4(CCC(NC5(c6ccccc6)CC5)C4)C3)ncnc2s1 (stereo not drawn) [Compound 282]
23 | – | – | 42.7 nM | > 3.75 µM | > 3.75 µM | – | – | – | Cc1cc2ccc(NC3CCC4(C3)CN(c3ncnc5sc(CC(F)(F)F)cc35)C4)cc2[nH]1 (stereo not drawn) [Compound 289]
24 | – | – | 97.7 nM | > 3.75 µM | > 3.75 µM | – | – | – | O=c1[nH]c2ccc(NC3CCC4(C3)CN(c3ncnc5sc(CC(F)(F)F)cc35)C4)cc2o1 (stereo not drawn) [Compound 295]
25 | – | – | 54.3 nM | > 3.75 µM | > 3.75 µM | – | – | – | O=c1[nH]c2ccc(NC3CCC4(C3)CN(c3ncnc5sc(CC(F)(F)F)cc35)C4)cc2[nH]1 (stereo not drawn) [Compound 298]
